For this assay, the system named is NCI-H520 cells. Put plainly: Subcutaneous xenograft model, tumor growth inhibition. The format is in vivo, SCID mice. As to conditions: tail vein. The method, then: Mice injected with NCI-H520 cells subcutaneously in the right dorsal flank were treated by intravenous saline; 2 mg/kg Cisplatin and 100 mg/kg Gemcitabine; Metuzumab infusion at 2 mg/kg, 10 mg/kg and 30 mg/kg; combination of 10 mg/kg Metuzumab with 2 mg/kg Cisplatin and 100 mg/kg Gemcitabine; wherein the antibodies were injected twice weekly for 3 week consecutively, while the chemotherapeutic agents were injected once a week for 3 weeks consecutively. The tumors were measured twice a week.
Animals were housed in specific pathogen-free (SPF) condition. For the localized subcutaneous xenograft mouse model, 1×10^6 NCI-H520 or A549 cells, suspended in Hank's balanced salt solution were implanted in the right dorsal flank of male SCID mice (6-8 week old). When tumors reached a mean volume of 100 mm^3, mice were randomized into treatment cohorts (n=10 mice per group). Mice were grouped for different treatments, including Metuzumab treatment groups treated with 2 mg/kg, 10 mg/kg and 30 mg/kg Metuzumab; chemistry treatment group treated with 2 mg/kg Cisplatin and 100 mg/kg Gemcitabine; combination treatment group treated with 10 mg/kg Metuzumab with 2 mg/kg Cisplatin and 100 mg/kg Gemcitabine, or saline (control group) via tail vein, respectively. Antibody injections were administered twice weekly, for 3 weeks consecutively; chemotherapeutic agents were administered once a week, for 3 weeks consecutively. Tumor size was measured twice each week for the duration of the study using calipers. Tumor volumes were determined using the following formula: […]. Antitumor activity was assessed by calculating inhibition ratio of tumor volumes (IRTV) based on medians by using following formula: [1−average (Ttreatment (day x)−Ttreatment (day 0))/average (Tcontrol (day x)−Tcontrol (day 0))]×100%.

“Metuzumab: human-mouse chimeric anti-CD147 IgG1, heavy chain SEQ ID NO: 4, light chain SEQ ID NO: 3, Mannose-5 glycoform lacking fucose and xylose”: the “inhibition ratio of tumor volumes (IRTV)” value (2 mg/kg twice weekly for 3 weeks) was determined as 49.53%, the “inhibition ratio of tumor volumes (IRTV)” value (10 mg/kg twice weekly for 3 weeks) was determined as 53.34% and the “inhibition ratio of tumor volumes (IRTV)” value (30 mg/kg twice weekly for 3 weeks) was 57.75%.

The values are drawn from patent US9963506B2, “Human-mouse chimeric anti-CD147 antibody with non-fucosylated glycosylation” (Fourth Military Medical University, priority 2015, dated 2018).
